Data on four compounds can be found in patent US10561661B2, “Purine derivative compounds for medical use” (MANROS THERAPEUTICS, priority 2014, dated 2020).

The subject of series [1] is mouse alveolar macrophages. Description: Lysosomes fusion: Rhodamine-110 processing and pHrodo-Red E. coli Bioparticles in murine alveolar macrophages. Type of series: cell-based. The method, then:
We added Rhodamine-110 to the cells prior the pHrodo-Red conjugated E. coli Bioparticles® providing simultaneous uptake of both probes into phagosomes. Lysosomes fusion into nascent phagosomes brings proteases including cathepsin and triggers Rhodamine conversion.
Isolated mouse alveolar macrophages (from cftr^−/− or Δ508F CFTR mice) were cultured adherent on the poly-L-lysine coated glass bottom dishes for 24-48 h. Then they were treated with 10 μM Rhodamine-110 for 20 min at room temperature in the dark with following incubation with 0.1 mg/ml pHrodo-Red conjugated E. coli Bioparticles® for 1 hour at 37° C. […] Then the cells were washed twice with PBS, fixed with 4% PFA. The images were acquired immediately after fixation on Leica SP5 2-photon laser confocal microscope with a 63× (NA1.4) oil objective.
Isolated mouse macrophages were plated on 96-well plate with a density of 3-6,000 cells (20-60 μm diameter) per well, incubated in complete DMEM (10% FBS, 1% penicillin-streptomycin) at 37° C. under 5% CO2 pressure for 24-48 h. The cells were loaded with 5 μM Rhodamine-110 for 20 min at room temperature in the dark, fed with E. coli Bioparticles® conjugated to pHrodo-Red for 1 h at 37° C.

Series [2] concerns human alveolar macrophages. Description: Phagosomal acidification, pHrodo Red BioParticles, plate reader. Conditions: 10 μM, read over 3 h. It is filed as cell-based. As for the experimental part:
(1C) Comparative effect of various compounds on phagosomal pH in human alveolar macrophages. Data summary from 3-10 patients for each compound tested at 10 μM. Data was obtained in triplicate for each patient and averaged for all patients with error bars indicating the SEM. Data were normalized to fluorescence changes observed in untreated control cells for each patient before averaging.
Broncho-alveolar lavage from humans was performed on consenting adults following a protocol approved by The University of Chicago Institutional Review Board. The patients included men and women, smokers and non-smokers, undergoing bronchoscopy for cancer biopsies prior to clinical treatment. […]
In brief, broncho-alveolar lavage fluid was strained through a 70 μm sterile cell strainer into a 50 ml conical tube centrifuge tube with a maximum broncho-alveolar lavage volume of 40 ml and a minimum volume of 10 ml followed by centrifugation at 1000×g for 5 min at 4° C. […] Cells were counted on Countess® (Invitrogen) with a distribution cut-off of 20-60 μm and cell viability determined by trypan blue exclusion. […]
After 24 h incubation cells were exposed to pHrodo Red BioParticles® (Life Technologies). Acidification was measured on 96-well plate format with 560 and 580 nm excitation and emission wavelengths at 37° C. in a Synergy MX, BioTek® plate reader. […]

For series [3], the target named is DYRK2 (Homo sapiens, UniProt Q92630). Description: IC50 towards inhibition of various kinases: DYRK2. It is filed as biochemical.
DYRK2, sequence (Q92630 whole entry, species assumed): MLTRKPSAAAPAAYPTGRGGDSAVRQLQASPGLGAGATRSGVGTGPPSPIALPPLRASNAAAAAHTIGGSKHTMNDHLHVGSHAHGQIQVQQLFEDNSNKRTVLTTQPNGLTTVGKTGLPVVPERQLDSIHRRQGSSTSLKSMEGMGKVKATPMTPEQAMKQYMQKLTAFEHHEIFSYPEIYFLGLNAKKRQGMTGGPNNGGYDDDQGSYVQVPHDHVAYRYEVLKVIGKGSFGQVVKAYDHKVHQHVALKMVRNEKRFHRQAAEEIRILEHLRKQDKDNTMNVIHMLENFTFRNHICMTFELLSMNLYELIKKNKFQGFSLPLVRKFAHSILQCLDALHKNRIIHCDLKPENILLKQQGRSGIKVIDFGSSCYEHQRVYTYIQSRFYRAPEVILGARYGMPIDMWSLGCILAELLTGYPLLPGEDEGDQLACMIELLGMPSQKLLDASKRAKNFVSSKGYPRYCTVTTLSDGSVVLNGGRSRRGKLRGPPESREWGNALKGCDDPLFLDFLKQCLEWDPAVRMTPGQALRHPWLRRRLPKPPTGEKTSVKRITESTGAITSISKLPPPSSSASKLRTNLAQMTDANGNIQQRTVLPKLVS
For series [4], the target named is DYRK3 (Homo sapiens, UniProt O43781). Description: IC50 towards inhibition of various kinases: DYRK3. Type of series: biochemical.
DYRK3, sequence (O43781 whole entry, species assumed): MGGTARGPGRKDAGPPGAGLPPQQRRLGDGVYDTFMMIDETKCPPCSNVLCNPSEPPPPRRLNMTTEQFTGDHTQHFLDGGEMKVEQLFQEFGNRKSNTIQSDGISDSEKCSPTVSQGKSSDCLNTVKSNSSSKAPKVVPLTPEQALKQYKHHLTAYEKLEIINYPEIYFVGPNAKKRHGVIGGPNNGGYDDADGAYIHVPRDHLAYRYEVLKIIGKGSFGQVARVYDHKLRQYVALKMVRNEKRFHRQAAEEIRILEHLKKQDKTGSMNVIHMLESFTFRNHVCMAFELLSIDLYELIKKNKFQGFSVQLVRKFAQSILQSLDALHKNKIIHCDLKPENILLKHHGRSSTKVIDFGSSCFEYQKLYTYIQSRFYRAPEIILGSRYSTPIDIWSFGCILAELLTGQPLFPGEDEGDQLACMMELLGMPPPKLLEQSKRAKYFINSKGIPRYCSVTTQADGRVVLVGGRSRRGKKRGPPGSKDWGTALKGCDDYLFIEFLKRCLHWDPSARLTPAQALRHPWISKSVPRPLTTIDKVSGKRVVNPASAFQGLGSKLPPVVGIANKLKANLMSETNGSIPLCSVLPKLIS
Series [5] has as its system Pseudomonas aeruginosa. Description: Growth of P. aeruginosa culture (optical density). Type of series: cell-based. The following applies: 37° C. As for the experimental part: FIG. 3. Absence of growth inhibition of P. aeruginosa culture by M3 metabolite and derivatives. 1/100 dilution of an overnight culture of P. aeruginosa was introduced in fresh culture medium and cultures were incubated at 37° C. with 20 μM of M3 metabolite or derivatives or 1 μM bafilomycin (negative control). Optical density (600 nm) was measured 2 h and 3.5 h after starting the cultivation, and every 30 min for 2.5 h.
Pseudomonas aeruginosa DsRed from single colony was grown in gentamicin containing TSB overnight at 37° C. with agitation at 300 RPM. Next day it was started the new culture at 1/100 dilution and certain compound of blocker were added to the tubes. We measured optical density (660 nm) of bacterial culture at every 30 minutes.

Series [6] has as its system ΔF508 CFTR alveolar macrophages. Description: Intracellular Pseudomonas aeruginosa growth (bacterial killing) in ΔF508 CFTR alveolar macrophages, live cell microscopy. The following applies: ΔF508 CFTR expressing alveolar macrophages, 20 μM, 6 h observation. Type of series: cell-based, mouse. The method, then: (§1) FIG. 2. Inhibition of Pseudomonas aeruginosa growth in cftr^−/− and ΔF508 alveolar macrophages by M3 metabolite and derivatives. A comparison of intracellular bacterial growth in single murine alveolar macrophages was carried out using live cell microscopy. Cells were fed DS-Red expressing P. aeruginosa for 30 min (MOI<10). Cells were exposed to M3 metabolite for 20 min prior to exposure to bacteria. Adherent and non-ingested bacteria were then removed by washing and incubation with antibiotics and live alveolar macrophages were observed microscopically for approximately 6 hours.
(§2) The data are presented as means of fluorescence intensities±SEM. Control conditions summarized data obtained from: WT—2 mice, 38 cells; ΔF508—6 mice, 120 cells; cftr^−/− 4 mice, 87 cells. […] In the presence of M3 metabolite we analysed data from: ΔF508—3 mice, 57 cells; cftr^−/−1 mouse, 67 cells. […]

The subject of series [7] is cftr−/− alveolar macrophages. Description: Intracellular Pseudomonas aeruginosa growth (bacterial killing) in cftr−/− alveolar macrophages, live cell microscopy. It is filed as cell-based, mouse. Conditions: 20 μM, 6 h observation. As for the experimental part:
as §1, §2

Series [8] has as its target CLK3 (Homo sapiens, UniProt P49761). Description: IC50 towards inhibition of various kinases: CLK3. Type of series: biochemical.
Series [9] deals with kinase. Conditions: cited from earlier work.
The subject of series [10] is CK1δ/ε. Description: IC50 towards inhibition of various kinases: CK1δ/ε. It is filed as biochemical.
The target of series [11] is Pim1 (Homo sapiens, UniProt P11309). Description: IC50 towards inhibition of various kinases: Pim1. It is filed as biochemical.
Pim1, sequence (P11309 whole entry, species assumed): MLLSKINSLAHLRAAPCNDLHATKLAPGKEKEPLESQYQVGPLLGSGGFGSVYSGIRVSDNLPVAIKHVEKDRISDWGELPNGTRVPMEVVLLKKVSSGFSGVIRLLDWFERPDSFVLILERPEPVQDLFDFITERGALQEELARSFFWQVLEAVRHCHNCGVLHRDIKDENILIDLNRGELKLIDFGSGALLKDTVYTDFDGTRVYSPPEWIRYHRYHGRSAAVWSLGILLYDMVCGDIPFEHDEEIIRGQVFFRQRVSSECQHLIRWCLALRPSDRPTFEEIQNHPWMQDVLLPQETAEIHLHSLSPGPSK
Series [12] addresses CLK4 (Homo sapiens, UniProt Q9HAZ1). Description: IC50 towards inhibition of various kinases: CLK4. Type of series: biochemical.
In series [13] the target is DYRK1A (Homo sapiens, UniProt Q13627). Description: IC50 towards inhibition of various kinases: DYRK1A. Type of series: biochemical.
Series [14] addresses CLK2 (Homo sapiens, UniProt P49760). Description: IC50 towards inhibition of various kinases: CLK2. Type of series: biochemical.
Series [15] addresses DYRK1B (Homo sapiens, UniProt Q9Y463). Description: IC50 towards inhibition of various kinases: DYRK1B. Type of series: biochemical.
The subject of series [16] is GSK-3α/β. Description: IC50 towards inhibition of various kinases: GSK-3α/β. It is filed as biochemical.
The target of series [17] is PfGSK-3 (Plasmodium falciparum, UniProt O77344). Description: biochemical. The following applies: read-out: IC50 value towards inhibition of PfGSK-3.
PfGSK-3, sequence (O77344 1-440): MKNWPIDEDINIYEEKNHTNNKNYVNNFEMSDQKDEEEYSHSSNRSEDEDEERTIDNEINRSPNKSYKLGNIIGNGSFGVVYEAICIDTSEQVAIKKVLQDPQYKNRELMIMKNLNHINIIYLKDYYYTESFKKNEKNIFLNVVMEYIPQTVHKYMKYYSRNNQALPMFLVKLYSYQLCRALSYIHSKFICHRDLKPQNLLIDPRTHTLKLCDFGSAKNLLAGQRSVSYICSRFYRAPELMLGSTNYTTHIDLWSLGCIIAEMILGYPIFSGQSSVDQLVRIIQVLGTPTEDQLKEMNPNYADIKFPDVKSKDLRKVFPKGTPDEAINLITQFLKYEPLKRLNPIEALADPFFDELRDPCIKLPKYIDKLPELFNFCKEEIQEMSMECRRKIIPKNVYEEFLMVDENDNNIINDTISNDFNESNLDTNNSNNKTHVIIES
Series [18] addresses CLK1 (Homo sapiens, UniProt P49759). Description: IC50 towards inhibition of various kinases: CLK1. Type of series: biochemical.
Series [19] concerns CDK1/cyclin B. Description: IC50 towards inhibition of various kinases: CDK1/cyclin B. It is filed as biochemical.
Series [20] has as its target CDK9/cyclin T (Homo sapiens, UniProt P50750). Description: IC50 towards inhibition of various kinases: CDK9/cyclin T. Type of series: biochemical.
For series [21], the target named is CK2 (Homo sapiens, UniProt P68400). Description: IC50 towards inhibition of various kinases: CK2. It is filed as biochemical.
CK2, sequence (P68400 whole entry): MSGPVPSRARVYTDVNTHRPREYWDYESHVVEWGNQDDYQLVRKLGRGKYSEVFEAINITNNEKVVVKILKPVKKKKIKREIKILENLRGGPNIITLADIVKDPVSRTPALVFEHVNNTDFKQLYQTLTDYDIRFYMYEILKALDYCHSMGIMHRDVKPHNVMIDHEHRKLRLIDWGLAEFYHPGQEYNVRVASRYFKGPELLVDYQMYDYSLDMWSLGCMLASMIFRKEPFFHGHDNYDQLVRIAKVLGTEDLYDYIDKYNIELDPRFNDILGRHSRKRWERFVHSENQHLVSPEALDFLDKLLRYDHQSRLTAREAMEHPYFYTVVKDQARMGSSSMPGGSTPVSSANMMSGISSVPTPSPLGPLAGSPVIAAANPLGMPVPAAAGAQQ

“Also recorded” adds a separate entry of the source. A value given as a limit tells only on which side of the number the result lay.

CLK2, sequence (P49760 whole entry, species assumed): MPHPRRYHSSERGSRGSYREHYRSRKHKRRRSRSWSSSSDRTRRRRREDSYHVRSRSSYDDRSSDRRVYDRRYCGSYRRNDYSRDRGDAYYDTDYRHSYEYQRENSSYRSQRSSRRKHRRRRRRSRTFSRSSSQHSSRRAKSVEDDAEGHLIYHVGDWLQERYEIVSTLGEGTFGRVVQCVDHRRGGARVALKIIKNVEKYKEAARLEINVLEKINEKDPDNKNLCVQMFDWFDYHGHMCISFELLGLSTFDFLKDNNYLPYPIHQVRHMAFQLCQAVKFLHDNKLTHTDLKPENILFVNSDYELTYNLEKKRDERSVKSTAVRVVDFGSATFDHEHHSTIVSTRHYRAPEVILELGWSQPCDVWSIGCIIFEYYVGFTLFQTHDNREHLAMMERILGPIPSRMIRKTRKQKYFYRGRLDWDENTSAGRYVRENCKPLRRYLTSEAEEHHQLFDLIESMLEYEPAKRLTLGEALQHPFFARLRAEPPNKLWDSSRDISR
CLK3, sequence (P49761 whole entry, species assumed): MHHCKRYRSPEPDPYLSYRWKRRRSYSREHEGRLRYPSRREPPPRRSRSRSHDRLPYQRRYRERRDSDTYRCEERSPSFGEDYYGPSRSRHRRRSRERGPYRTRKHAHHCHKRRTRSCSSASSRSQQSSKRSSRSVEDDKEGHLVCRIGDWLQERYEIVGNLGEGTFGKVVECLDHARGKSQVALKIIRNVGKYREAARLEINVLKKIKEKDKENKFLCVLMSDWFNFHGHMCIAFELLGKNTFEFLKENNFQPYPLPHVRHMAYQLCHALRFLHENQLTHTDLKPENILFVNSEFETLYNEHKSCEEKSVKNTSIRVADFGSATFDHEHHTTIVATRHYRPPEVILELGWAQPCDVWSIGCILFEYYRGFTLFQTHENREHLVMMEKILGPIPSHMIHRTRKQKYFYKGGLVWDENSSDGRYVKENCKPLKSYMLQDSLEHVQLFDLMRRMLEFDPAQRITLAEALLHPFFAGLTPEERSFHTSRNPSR
CLK4, sequence (Q9HAZ1 whole entry, species assumed): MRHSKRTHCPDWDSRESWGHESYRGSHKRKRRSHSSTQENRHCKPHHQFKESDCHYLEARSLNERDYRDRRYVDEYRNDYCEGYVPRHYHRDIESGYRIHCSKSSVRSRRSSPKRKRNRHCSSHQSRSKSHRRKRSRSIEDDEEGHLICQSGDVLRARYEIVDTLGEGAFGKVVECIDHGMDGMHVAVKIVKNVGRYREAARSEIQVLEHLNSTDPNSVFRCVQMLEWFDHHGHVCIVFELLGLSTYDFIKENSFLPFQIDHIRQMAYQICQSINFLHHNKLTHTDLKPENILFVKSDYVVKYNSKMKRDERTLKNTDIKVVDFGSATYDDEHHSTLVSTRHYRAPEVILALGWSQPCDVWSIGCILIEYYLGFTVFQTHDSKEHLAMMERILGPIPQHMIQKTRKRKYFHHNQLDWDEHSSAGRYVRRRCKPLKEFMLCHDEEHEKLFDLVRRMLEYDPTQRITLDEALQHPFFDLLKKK
CLK1, sequence (P49759 whole entry): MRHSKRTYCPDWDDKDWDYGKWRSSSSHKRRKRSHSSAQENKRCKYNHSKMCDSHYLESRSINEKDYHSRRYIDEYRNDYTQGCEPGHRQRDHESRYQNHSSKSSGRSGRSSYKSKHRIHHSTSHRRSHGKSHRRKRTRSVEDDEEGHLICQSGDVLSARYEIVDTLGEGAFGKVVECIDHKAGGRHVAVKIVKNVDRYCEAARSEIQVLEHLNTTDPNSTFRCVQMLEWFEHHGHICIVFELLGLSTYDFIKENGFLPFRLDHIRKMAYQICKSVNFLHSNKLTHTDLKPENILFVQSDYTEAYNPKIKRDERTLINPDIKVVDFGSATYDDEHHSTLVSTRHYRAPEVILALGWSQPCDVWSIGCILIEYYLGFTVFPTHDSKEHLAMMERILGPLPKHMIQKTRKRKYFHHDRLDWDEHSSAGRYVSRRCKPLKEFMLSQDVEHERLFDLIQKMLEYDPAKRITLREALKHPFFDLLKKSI
DYRK1B, sequence (Q9Y463 whole entry, species assumed): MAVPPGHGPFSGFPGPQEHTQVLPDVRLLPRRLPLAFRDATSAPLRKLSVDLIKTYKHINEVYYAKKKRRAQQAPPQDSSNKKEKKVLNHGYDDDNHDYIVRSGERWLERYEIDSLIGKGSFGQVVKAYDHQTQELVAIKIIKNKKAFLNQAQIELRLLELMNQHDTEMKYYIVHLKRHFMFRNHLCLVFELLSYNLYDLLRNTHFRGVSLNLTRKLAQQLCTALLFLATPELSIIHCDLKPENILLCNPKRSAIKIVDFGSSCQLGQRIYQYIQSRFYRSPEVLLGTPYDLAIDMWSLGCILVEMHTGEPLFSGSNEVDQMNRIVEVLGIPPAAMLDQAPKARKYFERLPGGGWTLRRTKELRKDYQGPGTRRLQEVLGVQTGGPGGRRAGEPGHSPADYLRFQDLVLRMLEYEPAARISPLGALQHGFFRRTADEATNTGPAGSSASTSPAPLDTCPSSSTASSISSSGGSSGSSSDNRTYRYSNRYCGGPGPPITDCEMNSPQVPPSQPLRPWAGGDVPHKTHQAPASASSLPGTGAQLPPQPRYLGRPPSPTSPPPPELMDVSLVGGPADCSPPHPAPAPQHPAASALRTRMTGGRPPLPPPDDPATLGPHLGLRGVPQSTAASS

`CC[C@H](CO)Nc1nc(NCc2ccccc2)c2ncn(C(C)C)c2n1` [(R)-roscovitine, 2-(R)-(1-ethyl-2-hydroxyethylamino)-6-benzylamino-9-isopropylpurine, reference compound]: the “fluorescence from pHrodo-Red conjugated E. coli Bioparticles phagocytosis” value in series [1] (FIG. 4A, alveolar macrophages, compared to control) was “decreased”. For the same compound, the “fluorescence resulting from rhodamine-110 processing by lysosomal proteases” value in series [1] (FIG. 4A, confocal microscopy, compared to control without compound) is reported as “increased”. For the same compound, the “phagosomal acidification over phagosomal pH observed in untreated cells” value in series [2] was “significantly enhance acidification”. The IC50 (usually the concentration that gives 50% inhibition) was 2.3 µM in series [3] and 59 µM in series [4]. The “prevention of bacterial growth in culture (optical density)” value (“prevention of bacterial growth” for short) in [5] (20 μM) is given as “unable to prevent bacterial growth”. Also, the “rescue of bacterial killing (intracellular P. aeruginosa growth)” value in series [6] and in [7] was “significantly rescues bacterial killing” throughout.
Turning to `CC(C)n1cnc2c(NCc3ccccc3)nc(N[C@@H](CO)C(=O)O)nc21` [Compound 6, (2S)-2-[[6-(benzylamino)-9-isopropyl-purin-2-yl]amino]-3-hydroxy-propanoic acid], the melting point – broadly, the temperature of the solid-liquid transition – lay in the range of 120 to 130 °C.
With `CC[C@@H](Nc1nc(NCc2ccccc2)c2ncn(C(C)C)c2n1)C(=O)O` [Metabolite M3, (2R)-2-[[9-isopropyl-6-(phenylmethylamino)purin-2-yl]amino]butanoic acid], the IC50 in series [8] is 52 µM; in series [10], 21 µM; in series [3] it was 23 µM; in series [11], above 100 µM; in series [12], 19 µM; in series [4] it was above 100 µM. In addition, the IC50 in series [13] was 19 µM; in series [14] it was 14 µM; in series [15], 22 µM; in series [16], above 100 µM; in [17], above 100 µM; in [18], 18 µM. The IC50 in series [19] was 11 µM; in series [20], above 10 µM; in [21], above 100 µM. Further, in series [1] (FIG. 4B, 10 μM, mouse alveolar macrophages, versus control cells, listed as M3 metabolite), the “lysosomes fusion / rhodamine-110 processing by lysosomal proteases” value was “increased; also recorded: enhanced lysosomes fusion”. Further, in series [9], the kinase inhibiting properties entry was “does not exhibit kinase inhibiting properties”. The “phagosomal acidification over phagosomal pH observed in untreated cells” value in [2] is recorded as “significantly enhance acidification”. In addition, the “prevention of bacterial growth” value in series [5] (20 μM) is “unable to prevent bacterial growth”. Further, the “rescue of bacterial killing (intracellular P. aeruginosa growth)” value in [6] and in series [7] was “at least as efficient as with (R)-roscovitine” throughout.
Regarding `CO/C1=C\C(C)=C\[C@@H](C)[C@@H](O)[C@@H](C)C/C(C)=C/C=C/[C@H](OC)[C@@H]([C@@H](C)[C@@H](O)[C@H](C)[C@@]2(O)C[C@@H](O)[C@H](C)[C@@H](C(C)C)O2)OC1=O` [bafilomycin], the “prevention of bacterial growth” value in [5] (1 μM) is “unable to prevent bacterial growth”.
